Data taken from article PMC8303187, “Anti-Inflammatory Effects of Compounds from Cudrania tricuspidata in HaCaT Human Keratinocytes” (International Journal of Molecular Sciences, 2021).

How the values were obtained:
Type in all cases: cell-based, human
[1] = tested on: p38 phosphorylation in HaCaT cells; assay: p38 phosphorylation in TNF-α + IFN-γ-treated HaCaT cells (Western blotting); conditions: HaCaT cells pretreated 3 h, then TNF-α + IFN-γ (20 ng/mL) 6 h; Western blot
Description: (§1) Stimulation of keratinocytes with TNF-α + IFN-γ upregulates various MAPK signaling pathways. To evaluate the anti-inflammatory effects of the six compounds from C. tricuspidata on the MAPK pathway, Western blotting analysis was used to determine the phosphorylation levels of JNK1/2, ERK1/2, and p38 in TNF-α + IFN-γ-treated HaCaT cells. Cells were pretreated with the six compounds from C. tricuspidata at the indicated concentrations for 3 h, and then stimulated with TNF-α + IFN-γ (20 ng/mL) for either 15 min, 2 h, or 6 h. Following the treatment with TNF-α + IFN-γ for 2 h, the phosphorylation of JNK1/2 was not inhibited by any of the six compounds (Figure 6A,B). After 15 min of treatment with TNF-α + IFN-γ, ERK1/2 phosphorylation was inhibited only by compound 14 (Figure 6C,D). The phosphorylation of p38 was inhibited only by compounds 13 and 4 after 6 h of treatment with TNF-α + IFN-γ (Figure 6E,F). […]
(§2) Figure 6 Effect of the six compounds from C. tricuspidata on JNK-1/2, ERK-1/2, and p38 phosphorylation in HaCaT cells. […] Cell extracts were analyzed using Western blotting and antibodies specific for phosphorylated JNK1/2 (p-JNK1/2), p-ERK1/2, or p-p38. […] Immunoblots were quantified using ImageJ software. The band intensity was quantified and normalized to each total protein concentration. * p < 0.05, ** p < 0.01, and *** p < 0.001 compared with TNF-α + IFN-γ only. […]

[2] = tested on: COX-2 protein expression in HaCaT cells; assay: COX-2 protein expression in TNF-α + IFN-γ-treated HaCaT cells (Western blotting); conditions: HaCaT cells pre-incubated 3 h (5–80 μM), then TNF-α + IFN-γ (20 ng/mL) 24 h; Western blot
Description: (§3) ICAM-1 is expressed in keratinocytes and is critical for the development of many skin diseases, such as contact dermatitis and lichen planus. Cyclooxygenase (COX) is the enzyme responsible for the conversion of arachidonic acid to prostaglandin H2, which is the main step in the prostaglandin synthesis pathway. COX-2 expression plays a key role in skin inflammation. In this experiment, the anti-inflammatory effects of the six compounds from C. tricuspidata on the expression of pro-inflammatory proteins were investigated in TNF-α + IFN-γ-treated HaCaT cells. Briefly, cells were pre-incubated for 3 h with or without the six compounds from C. tricuspidata (5–80 μM) and were subsequently challenged with TNF-α + IFN-γ (20 ng/mL) for 24 h. […]
(§4) Figure 4 Protein expression levels of COX-2 (A,B) and ICAM-1 (C,D) in TNF-α + IFN-γ-treated HaCaT cells. […] The immunoblot was quantified using ImageJ software. […]
(§5) Cells were harvested and pelleted via centrifugation at 200× g for 3 min, washed with PBS, and lysed in 20 mM Tris-HCl buffer (pH 7.4) containing a protease inhibitor mixture (0.1 mM phenylmethanesulfonyl fluoride, 5 mg/mL aprotinin, 5 mg/mL pepstatin A, and 1 mg/mL chymostatin). The protein concentration was determined using a protein assay dye reagent concentrate (#5000006; Bio-Rad Laboratories, Hercules, CA, USA). […]

[3] = tested on: ICAM-1 protein expression in HaCaT cells; assay: ICAM-1 protein expression in TNF-α + IFN-γ-treated HaCaT cells (Western blotting); conditions: HaCaT cells pre-incubated 3 h (5–80 μM), then TNF-α + IFN-γ (20 ng/mL) 6 h; Western blot
Description: as §3, with “[…] Previous studies have reported that compound 6 inhibits” for “Briefly, cells were pre-incubated for 3 h with or without”, “expression of COX-2 [55]; however, this study is the first to report the inhibition of COX-2 protein production by compound 6 in HaCaT cells.” for “six compounds from C. tricuspidata (5–80 μM) and were subsequently challenged with TNF-α + IFN-γ (20 ng/mL) for 24 h.”
as §4, §5

[4] = tested on: ERK1/2 phosphorylation in HaCaT cells; assay: ERK1/2 phosphorylation in TNF-α + IFN-γ-treated HaCaT cells (Western blotting); conditions: HaCaT cells pretreated 3 h, then TNF-α + IFN-γ (20 ng/mL) 15 min; Western blot
Description: as §1, §2

SMILES | phosphorylation of p38 [1] | expression level of COX-2 [2] | ICAM-1 expression [3] | ERK1/2 phosphorylation [4]
CC(C)=CCc1c(O)cc2c(c1O)C(=O)C[C@@H](c1ccc(O)cc1O)O2 [Compound 4, cudraflavanone B] | inhibited | – | – | –
CC(C)=CCc1c(O)cc2oc(-c3ccc(O)cc3O)c(CC=C(C)C)c(=O)c2c1O [Compound 6, cudraflavone C] | – | decreased | particularly effective | –
C=CC(C)(C)c1c(OC)cc2oc3cc(O)c(O)cc3c(=O)c2c1O [Compound 13, 1,6,7-trihydroxy-2-(1,1-dimethyl-2-propenyl)-3-methoxyxanthone] | inhibited | – | – | –
C=CC(C)(C)c1c(O)cc(O)c2c(=O)c3cc(O)c(O)cc3oc12 [Compound 14, cudratricusxanthone L] | – | decreased | particularly effective | inhibited
